Experimental data published in patent US9267945B2, “Diagnosis of multiple sclerosis” (Yeda Research and Development Co. Ltd., priority 2008, dated 2016).

Assays:
EAE in C57BL/6 mice = assay: EAE induced with MOG35-55; format: in vivo
Experimental: EAE was induced in C57BL/6 mice with MOG35-55, and 15-ketocholestene, 15-ketocholestane and 15α-hydroxycholestene were administered at days 0, 4, 7 and 10 after EAE induction (10 μg/mice). AIQ was administered intraperitoneally (60 μg/mice) on daily basis. The course of EAE in these mice is shown as the mean EAE score+s.e.m. (MOG35-55 n=22, MOG35-55+oxChol n=24, MOG35-55+oxChol+AIQ n=18).
Spinal cords were taken on day 19 and stained with hematoxylin and eosin, luxol fast blue or silver stain to quantify the cellular infiltrate, demyelination and axonal loss, respectively. Each column represents the mean±SEM resulting from the analysis of at least 8 sections. Administration of oxChol enhanced EAE as measured clinically (FIG. 4A, P<0.0001, two-way ANOVA), and augmented inflammatory infiltrates (FIG. 4B; P<0.05, one-way ANOVA), demyelination (FIG. 4C; P<0.01, one-way ANOVA) and axonal loss (FIG. 4D; P<0.001, one-way ANOVA); these effects were inhibited by treatment with AIQ (P<0.001, one-way ANOVA).

[1] = tested on: T cell responses to MOG35-55; assay: T cell responses to MOG35-55 in EAE mice; format: cell-based; settings: EAE mice given oxChol and AIQ
Experimental: Further investigations were performed to determine whether the effect of oxChol on EAE was mediated by PARP.

[2] = tested on: IgG reactivity to PLP261-277; assay: Inhibition of RRMS serum IgG reactivity on antigen microarray by pre-incubation with free peptide; format: binding, human; settings: RRMS sera 1:10 dilution, excess unbound peptide, FIG. 1C
Experimental: RRMS or healthy controls (HC) serum samples were hybridized on antigen microarrays at different concentrations and the mean IgG (FIG. 1A) and IgM (FIG. 1B) reactivity to the CNS, HSP or lipid antigens spotted on the microarrays were measured. Results are presented as mean±SEM of the IgG or IgM reactivity for CNS, HSP or lipid antigens at each dilution. *P<0.05, **P<0.01 and ***P<0.001 (two-way ANOVA) when compared to HC samples tested at the same dilution.
The chips were washed with PBS, blocked for 1 h at 37° C. with 1% BSA, and incubated for 2 hours at 37° C. with a 1:10 dilution of the test serum in blocking buffer under a coverslip in a humid environment. The arrays were then washed and incubated for 45 min at 37° C. with a 1:500 dilution mixture of goat anti-human IgG Cy3-conjugated antibody and a goat anti-human IgM conjugated to Cy5, (both purchased from Jackson ImmunoResearch, West Grove, Pa. The arrays were scanned with a ScanArray 4000× scanner (GSI Luminomics, Billerica, Mass., USA) and the IgM and IgG results were recorded separately. The results were recorded as TIFF files.

With Nc1cccc2c(=O)[nH]ccc12 [AIQ, 5-Aminoisoquinolinone] the “inflammatory infiltrates in spinal cord” value (EAE in C57BL/6 mice; day 19, hematoxylin and eosin, FIG. 4B) was “inhibited”, the “demyelination in spinal cord” value (EAE in C57BL/6 mice; day 19, luxol fast blue, FIG. 4C) was “inhibited” and the “axonal loss in spinal cord” value (EAE in C57BL/6 mice; day 19, silver stain, FIG. 4D) was “inhibited”. For the same compound, the “EAE measured clinically (mean EAE score)” value (EAE in C57BL/6 mice; oxChol 10 μg/mice days 0, 4, 7, 10, AIQ 60 μg/mice i.p. daily, FIG. 4A, P<0.0001) was “abrogated the worsening of EAE” and the “T cell responses to MOG35-55 as measured by cytokines (IFN-γ and IL-17) or proliferation” value [1] was “did not affect”.
In the case of “PLP261-277: proteolipid protein peptide 261-277, used unbound as competitor (ATYNFAVLKLMGRGTKF)”, the “reactivity to PLP261-277 on the antigen array after pre-incubation of the serum with peptide” value [2] is reported as “inhibited”.
